Experimental data reported in article PMC2771899, “Augmentation of Reverse Transcription by Integrase through an Interaction with Host Factor, SIP1/Gemin2 Is Critical for HIV-1 Infection” (PLoS ONE, 2009).
Several values for one entry are separate records, joined by “and”; a condition that tells them apart may be missing. Equal entries are not always repeated. Entries after “also recorded” stand apart in the source; their conditions may differ. Peptide text beside a SMILES is read from it. * marks the point of attachment. Cbz = O=C(OCc1ccccc1)*

Tests used:
recombinant SIP1 (rSIP1) [1] = test: In vitro binding assay, nickel-column pull-down; conditions: 10 µg rSIP1 with 10 µg His-IN, 2 h, 4°C, nickel agarose, anti-SIP1 Western blot
IN-V5 = test: Expression level of IN-V5 in 293T cells by Western blotting
HIV-1 RT (GST-RTp66) = test: In vitro RT assay, stimulation by IN and SIP1; format: biochemical
Protocol: (§1) Figure 4 Augmentation of reverse transcription by HIV-1 IN and SIP1 in vitro. (A, B) The in vitro RT assay was carried out with 35 fmoles of HIV-1 RT (GST-RTp66) in the absence or presence of different amounts of full-length rIN (WT-IN). The truncated form of IN (IN1–70) that lack SIP1 binding domains was also tested in apparel as a control. The amount of HIV-1 cDNA was measured by real-time PCR using the HIV-1 R/U5 (A) or R/gag (B) primer pair. Significant augmentation (p<0.05) by WT-IN in the levels of HIV-1 cDNA compared with the level without IN (0 fmole) was indicated by asterisks. (C) The in vitro RT assay was carried out as described in (A) in either the absence or presence of […] of WT-IN, together with different amounts of rSIP1. (D) The in vitro RT assay was carried out with 3.5 fmoles of WT-IN (black bar) or IN1–70 (slash bar), in either the absence (−) or presence (+) of 50 fmoles of rSIP1. (E) The oligo(dT) cellulose resin was incubated with in vitro transcribed HIV-1 RNA for 1 h. After incubation, 10 µg of GST-RT in either the absence or presence of His-IN or rSIP1 was added and incubated for 2 h. After four washes with the IN storage buffer, precipitates were analyzed by immunoblot analysis using an anti-GST antibody.
For preparation of the viral RNA template for in vitro transcription, the DNA sequences corresponding to HIV-1 lentiviral genomic RNA (pCS-CDF-CG-PRE) were subcloned into pGEM-T vector (pGEM-CS-CDF). Then, the annealed oligonucleotides of TCGA(A)30G and TCGA(T)30C were inserted into the pGEM-CS-CDF vector at the Sal-I site for addition of the poly(A) tail (the pGEM-CS-CDF-PolyA). Synthesized HIV RNA with the poly(A) 30 tail were produced by in vitro transcription using RiboMAX™ Large Scale RNA Production System-T7 (Promega) with Ribo m^7 G Cap analog (Promega) to mimic the capped structure of mRNA. Transcription products of HIV-1 RNA (4.9 kb) were purified with spin columns MicroSpin™ G-25 Columns (American Biosciences), followed by gel-filtration using NAP-5 columns, (American Biosciences) and were used in the in vitro RT assay. The reverse transcription reactions were carried out in a final volume of 20 µl RT reaction buffer consisting of 50 mM Tris-HCl (pH 8.3), 75 mM KCl, 3 mM MgCl2, 10 mM DTT, 1 mM dNTPs, 0.04∼0.4 fmoles of HIV-1 RNA templates and 0.4∼4 fmoles of RNA primer, 3.5∼35 fmol HIV-1 RT (GST-RTp66). The reaction was carried out at 42°C for 30 min in either the absence or presence of different amount of His-IN and recombinant SIP1. The amount of the cDNA product was measured by real-time PCR using primers for the R/U5 or R/gag region.
Supplementary file pone.0007825.s004.pdf: Figure S4 Stoichiometry and order of IN and SIP1 for their stimulatory effect of cDNA synthesis. (A) The in vitro RT assay was carried out in the absence or presence of different amount of the His-IN (0.2 or 1 pmol) or recombinant SIP1 (0.2 or 1 pmol) as described in Figure 4. The amount of cDNA product was measured by real-time PCR using primers for HIV-1 R/U5 region. (B) The in vitro RT assay was carried out with 5 pmoles of His-IN in the absence or presence of different amount SIP1 (1 or 5 pmol). (C) The in vitro RT assay was carried out in the absence or presence of the His-IN and recombinant SIP1 with [α32P]dCTP and subjected to SDS-PAGE analysis in denatured condition. (D) In vitro RT assay was performed as described above, except that rIN with rRT and rSIP1 were pre-incubated on ice in different combinations and orders (inlet Table). Then, reaction was initiated by adding mixture containing the template RNA/PBS-primer and dNTPs. (0.10 MB PDF) Click here for additional data file.

rSIP1 = test: Dot-blot binding of peptide to SIP1; conditions: 40 or 400 nmol peptide on nitrocellulose, rSIP1 (5 µg), anti-SIP1 antibody
[2] = target: T1, IN-SIP1 mediated RT activity (Homo sapiens, UniProt O14893); test: In vitro RT assay, inhibition of IN-SIP1 mediated RT activity by peptide; format: biochemical, HIV-1; conditions: 35 fmol RT, 3.5 fmol His-IN, 50 fmol rSIP1; for Effect on IN-SIP1 mediated RT activity: cDNA relative to control
T1 construct: the SIP1 gene was amplified from pTRE-SIP1 (kindly provided by Dr. G. Dreyfuss) by PCR and cloned into BamHI and EcoRI sites of pGEX-6P-2; GST (N, cleaved yes); made in house; host or cells: E. coli BL21 (GST-SIP1), E. coli M15 (His-IN)
T1 sequence (O14893 1-280): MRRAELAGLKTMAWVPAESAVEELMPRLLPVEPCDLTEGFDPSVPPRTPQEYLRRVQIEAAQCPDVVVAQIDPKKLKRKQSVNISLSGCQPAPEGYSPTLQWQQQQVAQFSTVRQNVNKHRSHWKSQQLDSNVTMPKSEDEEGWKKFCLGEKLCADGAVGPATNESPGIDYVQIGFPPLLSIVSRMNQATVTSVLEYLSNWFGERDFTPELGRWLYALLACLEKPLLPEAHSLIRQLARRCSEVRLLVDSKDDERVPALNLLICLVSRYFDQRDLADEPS

[3] = tested on: IN-SIP1 interaction (His-IN, rSIP1); test: Dot-blot inhibition of IN-SIP1 interaction by peptide; format: binding, HIV-1
[4] = tested on: HIVNL43-luc/VSV-G pseudotypes; format: cell-based, HIV-1
RT on viral RNA = test: RT assembly on viral RNA; format: biochemical; conditions: HIV-1 RNA on oligo(dT) cellulose, 10 µg GST-RT, 2 h, immunoblot anti-GST (Figure 4E)
Protocol: as §1
Next, the effects of IN and SIP1 on the assembly of RT on viral RNA was examined. […] Levels of RT on viral RNA were determined by immunoblot assay. […]

RT = test: Direct binding to RT; set-up: species or system HIV-1; conditions: data not shown
[5] = target: full-length His-tagged HIV-1 integrase Y15A (HIV-1 (pNL4-3)); test: not stated; data not shown; in vitro, recombinant IN-Y15A
recombinant SIP1 (rSIP1) [6] = target: recombinant SIP1 (rSIP1) (UniProt O14893)
recombinant SIP1 (rSIP1) [7] = target: recombinant SIP1 (rSIP1) (UniProt O14893); remark: listed apart in the source
[8] = target: wild type HIV-1 integrase with V5 epitope (IN-V5, WT-V5) (HIV-1 (pNL4-3)); test: cross-linking

Compound: 1-60: His-tagged IN deletion form
- Binding to rSIP1 in vitro (recombinant SIP1 (rSIP1) [1]): did not bind to rSIP1

Compound: 1-70: His-tagged IN deletion form
- Binding to rSIP1 in vitro (recombinant SIP1 (rSIP1) [1]): did not bind to rSIP1

Compound: 1-80: His-tagged IN deletion form
- Binding to rSIP1 in vitro (recombinant SIP1 (rSIP1) [1]): significant binding to rSIP1

Compound: 1-90: His-tagged IN deletion form
- Binding to rSIP1 in vitro (recombinant SIP1 (rSIP1) [1]): significant binding to rSIP1

Compound: 1-100: His-tagged IN deletion form
- Binding to rSIP1 in vitro (recombinant SIP1 (rSIP1) [1]): significant binding to rSIP1

Compound: 1-220: His-tagged IN deletion form
- Binding to rSIP1 in vitro (recombinant SIP1 (rSIP1) [1]): significantly restored binding of IN to rSIP1

Compound: 1-230: His-tagged IN deletion form
- Binding to rSIP1 in vitro (recombinant SIP1 (rSIP1) [1]): significantly restored binding of IN to rSIP1

Compound: 1-240: His-tagged IN deletion form
- Binding to rSIP1 in vitro (recombinant SIP1 (rSIP1) [1]): significantly reduced binding to rSIP1

Compound: 1-250: His-tagged IN deletion form
- Binding to rSIP1 in vitro (recombinant SIP1 (rSIP1) [1]): significantly reduced binding to rSIP1

Compound: 1-260: His-tagged IN deletion form
- Binding to rSIP1 in vitro (recombinant SIP1 (rSIP1) [1]): significantly reduced binding to rSIP1

Compound: 1-270: His-tagged IN, the 18 amino acids from the C-terminal deleted
- Binding to rSIP1 in vitro (recombinant SIP1 (rSIP1) [1]): efficient interaction with rSIP1 in vitro

Compound: CC(C)C[C@@H](C=O)NC(=O)[C@H](CC(C)C)NC(=O)[C@H](CC(C)C)NC(=O)OCc1ccccc1 [MG132] (Cbz-Leu-Leu-Leu-aldehyde)
- Effect of MG132 on level of WT-V5 (IN-V5; 10 µM MG-132): not changed
- Effect of MG132 on expression level of IN mutants (IN-V5; 10 µM MG-132, Y15A-V5, K186Q-V5 and LL241,242AA-V5): restored the expression levels of the IN mutants
- Effect of MG132 on level of IN-V5 in siSIP1-treated cells (IN-V5; siSIP1 treated): restored

Compound: IN1–70: truncated HIV-1 IN that lacks the central and C-terminal domains
- Effect on level of cDNA products (R/U5) (HIV-1 RT (GST-RTp66); truncated IN, any dose, 35 fmoles RT, 42°C, 30 min, real-time PCR, P = 0.58∼0.98): no significant stimulatory effect at any dose

Compound: IN154–174: control peptide, residues of 154–174, contains a motif critical for the interaction with LEDGF/p75 (MNKELKKIIGQVRDQAEHLKT; Integrase; UniProt P04585 1301-1321, looked up, fragment) [reference compound]
- Direct binding of peptide to rSIP1 (rSIP1): did not
- Effect on IN-SIP1 mediated RT activity [2]: inhibitory effect was not evident

Compound: IN231–251: synthetic peptide corresponding to the residues of 231–251 of HIV-1 IN
- Direct binding of peptide to rSIP1 (rSIP1): efficiently bound to rSIP1
- Peptide concentration that reduces His-WT binding to SIP1 to non-specific background levels ([3]; His-IN (10 µg) on nitrocellulose, 5 µg rSIP1): at least 50 µM
- Interference with binding of full-length IN (His-WT) to SIP1 ([3]; His-IN (10 µg) on nitrocellulose, 5 µg rSIP1, peptide present): significantly interfered with the binding of the full-length IN (His-WT) to the SIP1 protein
- Effect on IN-SIP1 interaction and its RT-stimulatory effects ([3]; summary statement): inhibit the IN-SIP1 interaction and its RT-stimulatory effects
- IC50, inhibition of IN-SIP1 mediated RT activity ([2]; 42°C, 30 min, 20 µl, real-time PCR): ~1 nmoles per reaction
- Effect on IN-SIP1 mediated RT activity [2]: significantly reduced the IN-SIP1 mediated RT activity in a dose-dependent manner
- Effect on HIV-1 infectivity [4]: did not significantly reduce HIV-1 infectivity

Compound: SIP1: survival motor neuron-interacting protein 1, recombinant
- Effect of SIP1 on RT activity at higher amounts of IN (HIV-1 RT (GST-RTp66); 5 pmoles His-IN, SIP1 1 or 5 pmol (Figure S4B)): not evident; also recorded: could not observed when high amount of IN protein was present
- Stimulation of RT activity by SIP1 with IN1–70 (HIV-1 RT (GST-RTp66); 3.5 fmoles IN1–70, 50 fmoles rSIP1, P = 0.98): no significant
- Stimulation of RT activity by SIP1 in presence of full-length IN (HIV-1 RT (GST-RTp66); 3.5 fmoles WT-IN, 50 fmoles rSIP1, P = 0.001): Significant stimulation of RT activity
- Enhancement of IN-stimulated RT activity by SIP1 (HIV-1 RT (GST-RTp66); WT-IN plus different amounts of rSIP1 (Figure 4C)): further enhanced by SIP1 in a dose-dependent manner
- Effect of pre-incubation order on stimulatory effect (HIV-1 RT (GST-RTp66); pre-incubation of RT and IN before SIP1, on ice (Figure S4D)): most effective stimulatory effect
- Stimulation of RT activity by SIP1 alone (HIV-1 RT (GST-RTp66); without IN, P = 0.69): no significant
- Level of RT on viral RNA (RT on viral RNA): enhanced RT assembly on viral RNA
- Direct binding to RT (RT): cannot bind to RT directly

Compound: full-length His-tagged HIV-1 integrase Y15A (enzyme)
- stoichiometry N [5]: 2

Compound: synthetic peptide IN60–80
- IC50 of inhibition of the IN-SIP1 mediated RT activity in the in vitro reverse transcription assay (35 fmol RT, 3.5 fmol His-IN, 50 fmol rSIP1); the pair blocked is m2 with m15 (pmoles per reaction) (recombinant SIP1 (rSIP1) [6]): 10
- HIV-1 infectivity (luciferase activity) in PMA-stimulated THP-1 cells with 100 µM peptide, relative to control; the pair blocked is IN with SIP1 (recombinant SIP1 (rSIP1) [7]): 20 % of control and 25 % of control

Compound: synthetic peptide IN231–251
- IC50 of inhibition of the IN-SIP1 mediated RT activity in the in vitro reverse transcription assay (35 fmol RT, 3.5 fmol His-IN, 50 fmol rSIP1); the pair blocked is m2 with m15 (nmoles per reaction) (recombinant SIP1 (rSIP1) [6]): 1

Compound: wild type HIV-1 integrase with V5 epitope (IN-V5, WT-V5) (enzyme)
- tetramer formation relative to control siRNA treated cells (SIP1 knock-down cells) [8]: 50%
